How the values were obtained:
[1] = excess molar enthalpy (molar enthalpy of mixing); xn = mol fraction of the nth substance listed; conditions: 298.15 K, Liquid, Calvet calorimetry
[2] = 298.15 K; 101.33 kPa; Liquid

CCCCCC(=O)OC(=O)CCCCC [caproic anhydride] + CCCCCCCCCCCCCCCC
[1]
Conditions	excess molar enthalpy [kcal/mol]
x1 = 0.0307	0.0555
x1 = 0.0596	0.0993
x1 = 0.0868	0.135
x1 = 0.1125	0.163
x1 = 0.1368	0.189
x1 = 0.1597	0.209
x1 = 0.1815	0.227
x1 = 0.2022	0.242
x1 = 0.2219	0.255
x1 = 0.2406	0.266
x1 = 0.2627	0.278
x1 = 0.282	0.289
x1 = 0.2889	0.293
x1 = 0.2962	0.296
x1 = 0.3038	0.3
x1 = 0.3118	0.303
x1 = 0.3202	0.307
x1 = 0.3291	0.31
x1 = 0.3373	0.313
x1 = 0.346	0.316
x1 = 0.355	0.318
x1 = 0.3646	0.321
x1 = 0.3747	0.324
x1 = 0.3853	0.326
x1 = 0.3954	0.329
x1 = 0.4059	0.331
x1 = 0.417	0.333
x1 = 0.4262	0.333
x1 = 0.4357	0.334
x1 = 0.4457	0.335
x1 = 0.4562	0.336
x1 = 0.4671	0.336
x1 = 0.4787	0.336
x1 = 0.4907	0.336
x1 = 0.5034	0.335
x1 = 0.5144	0.334
x1 = 0.5258	0.333
x1 = 0.5377	0.331
x1 = 0.5502	0.33
x1 = 0.5633	0.328
x1 = 0.5771	0.325
x1 = 0.5893	0.322
x1 = 0.602	0.318
x1 = 0.6153	0.314
x1 = 0.6292	0.31
x1 = 0.6437	0.304
x1 = 0.6589	0.299
x1 = 0.6721	0.293
x1 = 0.6857	0.286
x1 = 0.6999	0.279
x1 = 0.7147	0.271
x1 = 0.7287	0.262
x1 = 0.7433	0.254
x1 = 0.7584	0.244
x1 = 0.7742	0.233
x1 = 0.7907	0.221
x1 = 0.8078	0.208
x1 = 0.8233	0.196
x1 = 0.8393	0.181
x1 = 0.856	0.166
x1 = 0.8733	0.15
x1 = 0.8914	0.132
x1 = 0.9102	0.112
x1 = 0.9269	0.0931
x1 = 0.9411	0.0725
x1 = 0.962	0.0493
x1 = 0.9807	0.0265

CCCCCC(=O)OC(=O)CCCCC [caproic anhydride]
Conditions	mass density [kg/m3]
[2]	923.96

CCCCCC(=O)OC(=O)CCCCC [caproic anhydride] + CCCCCCCCCCCC
[1]
Conditions	excess molar enthalpy [kcal/mol]
x1 = 0.0213	0.0366
x1 = 0.0417	0.0668
x1 = 0.0612	0.0922
x1 = 0.08	0.114
x1 = 0.098	0.133
x1 = 0.1154	0.15
x1 = 0.1349	0.166
x1 = 0.1536	0.181
x1 = 0.1714	0.194
x1 = 0.1886	0.204
x1 = 0.205	0.214
x1 = 0.2208	0.222
x1 = 0.2374	0.23
x1 = 0.2533	0.236
x1 = 0.2625	0.244
x1 = 0.2688	0.247
x1 = 0.2754	0.249
x1 = 0.2824	0.252
x1 = 0.2897	0.254
x1 = 0.2974	0.257
x1 = 0.3056	0.26
x1 = 0.3134	0.262
x1 = 0.3215	0.264
x1 = 0.3301	0.266
x1 = 0.3392	0.268
x1 = 0.3471	0.27
x1 = 0.3555	0.272
x1 = 0.3642	0.273
x1 = 0.3733	0.275
x1 = 0.383	0.276
x1 = 0.3931	0.278
x1 = 0.4023	0.279
x1 = 0.412	0.279
x1 = 0.4222	0.28
x1 = 0.4329	0.28
x1 = 0.4442	0.281
x1 = 0.456	0.281
x1 = 0.4672	0.281
x1 = 0.4789	0.28
x1 = 0.4913	0.279
x1 = 0.5043	0.278
x1 = 0.5162	0.276
x1 = 0.5286	0.275
x1 = 0.5417	0.272
x1 = 0.5554	0.27
x1 = 0.5698	0.267
x1 = 0.585	0.263
x1 = 0.5987	0.259
x1 = 0.613	0.255
x1 = 0.628	0.251
x1 = 0.6438	0.245
x1 = 0.6604	0.239
x1 = 0.6778	0.232
x1 = 0.6941	0.224
x1 = 0.7112	0.217
x1 = 0.7291	0.208
x1 = 0.748	0.198
x1 = 0.7678	0.187
x1 = 0.7854	0.176
x1 = 0.8039	0.166
x1 = 0.8233	0.151
x1 = 0.8436	0.137
x1 = 0.8649	0.121
x1 = 0.8874	0.103
x1 = 0.9079	0.086
x1 = 0.9293	0.0676
x1 = 0.9517	0.0472
x1 = 0.9753	0.0247

CCCCC(=O)OC(=O)CCCC [pentanoic anhydride] + CCCCCCCCCCCC
[1]
Conditions	excess molar enthalpy [kcal/mol]
x1 = 0.0248	0.0469
x1 = 0.0484	0.0865
x1 = 0.0709	0.118
x1 = 0.0923	0.146
x1 = 0.1128	0.169
x1 = 0.1324	0.189
x1 = 0.1511	0.207
x1 = 0.1691	0.222
x1 = 0.1914	0.239
x1 = 0.2126	0.253
x1 = 0.2327	0.265
x1 = 0.2518	0.276
x1 = 0.2699	0.285
x1 = 0.2827	0.292
x1 = 0.3038	0.299
x1 = 0.3195	0.305
x1 = 0.3411	0.315
x1 = 0.3488	0.317
x1 = 0.3569	0.319
x1 = 0.3654	0.321
x1 = 0.3743	0.323
x1 = 0.3837	0.325
x1 = 0.3935	0.327
x1 = 0.4025	0.328
x1 = 0.4118	0.329
x1 = 0.4217	0.33
x1 = 0.432	0.331
x1 = 0.4428	0.332
x1 = 0.4542	0.333
x1 = 0.4644	0.333
x1 = 0.475	0.333
x1 = 0.4861	0.332
x1 = 0.4978	0.332
x1 = 0.51	0.331
x1 = 0.5229	0.329
x1 = 0.5342	0.327
x1 = 0.5461	0.326
x1 = 0.5585	0.323
x1 = 0.5715	0.32
x1 = 0.5851	0.317
x1 = 0.5993	0.313
x1 = 0.6122	0.309
x1 = 0.6257	0.305
x1 = 0.6398	0.3
x1 = 0.6545	0.294
x1 = 0.6699	0.287
x1 = 0.6861	0.28
x1 = 0.7003	0.272
x1 = 0.7151	0.265
x1 = 0.7305	0.256
x1 = 0.7467	0.246
x1 = 0.7635	0.235
x1 = 0.7811	0.223
x1 = 0.7967	0.211
x1 = 0.8129	0.199
x1 = 0.8298	0.185
x1 = 0.8474	0.17
x1 = 0.8657	0.153
x1 = 0.8849	0.135
x1 = 0.9022	0.117
x1 = 0.9202	0.0976
x1 = 0.9389	0.0768
x1 = 0.9584	0.0528
x1 = 0.9788	0.028

CCCCCCCCCCCCCC [tetradecane]
Conditions	mass density [kg/m3]
[2]	760.2

CCCCC(=O)OC(=O)CCCC [pentanoic anhydride]
Conditions	mass density [kg/m3]
[2]	939.15

CCCCCCCCCCCCCCCC [hexadecane]
Conditions	mass density [kg/m3]
[2]	770.31
